The record followed here is patent US5530097A, “Human cancer inhibitory peptide amides” (Arizona Board of Regents acting on behalf of Arizona State …, priority 1994, dated 1996).

Broadly, the TGI is the concentration giving total growth inhibition. Higher therefore signals lower sensitivity of the cells.

Some results are limits rather than exact numbers.

Experiment [1] has as its system MX-1 Human Mammary Xenograft. As to the kind of experiment: Experimental anticancer activity in murine in vivo systems (Tumor Regression). The conditions noted are these: MX-1 (Tumor Regression).
A further experiment concerns PS-388. In words: PS-388 mouse leukemia cell line test. The experiment is classed as cell-based. The conditions noted are these: Mouse Leukemia PS-388. Here is the method:
(§1) ED50 (P388) and GI50 (HTCL) identify the drug dose which reduces the percent tumor/cell growth to 50%. There is no mathematical difference between ED50 and GI50, both of which are calculated using the same formula. The only difference is historical usage.
(§2) Each drug is tested at five (5) doses: 100--10-1-0.1--0.01 μg/mL. Percent Growths are calculated for each dose. The two (or three) doses with growth values above, below, (or near to) 50% growth are used to calculate the ED50 /GI50 values using a linear regression computation. If no dose yields a growth value under 50%, the results are expressed as: ED50 >(highest dose). If no dose yields growth higher than 50% growth, then ED50 <(lowest dose). Similar calculations are performed for the TGI at 0% growth, and at -50% growth for the LC50.
(§3) At the start of each experiment, cells from the in vitro cell cultures are inoculated into the appropriate tubes or microtiter plates. One set of control tubes/plates is immediately counted to determine the number of cells at the start of the experiment. This is the "baseline count", or "Tzero reading". At the end of the experiment (48 hrs later), a second set of control tubes/plates is analyzed to determine the "Control Growth" value. The growth (or death) of cells relative to the initial quantity of cells is used to define the "Percent of Growth."
(§4) Similarly, the compounds disclosed herein have also been tested against an NCI in vitro mini panel. For each of six cell lines GI50, TGI, and LC50 amounts were calculated for each compound. Each compound was also tested against the PS-388 cell line and for this test an ED50 was calculated.
(§5) The protocols followed, for the NCI minipanel are, except for the number of cell lines, those established by M. R. Boyd Ph.D., and well known to those of ordinary skill in the art. The procedure followed for the test against PS-388 Leukemia is the same that was followed in the superseded NCI P-388 screening test, which is also well known to those having ordinary skill in the art.

The next experiment deals with NCI-H460. As to the kind of experiment: NCI in vitro mini panel, human cancer cell line growth inhibition. The conditions noted are these: Lung-NSC NCI-H460, 48 hrs. The format is cell-based. As for the experimental part:
as §1
(§6) TGI, means "Total Growth Inhibition", and identifies the drug dose needed to yield zero percent growth, i.e. there are just as many cells at the end of the experiment as were present at the beginning. Whether just as many cells were killed as were produced (steady state), or no growth occurred (total inhibition) cannot be distinguished.
(§7) LC50, means "Lethal Concentration 50%", and identifies the drug concentration which reduces to one-half of the cells originally present at the beginning of the experiment.
as §2, §3, §4, §5

A further experiment concerns A498. The description is as above. The experiment is classed as cell-based. The settings on record: Renal A498, 48 hrs. Here is the method:
as §1, §6, §7, §2, §3, §4, §5

For the next experiment, the system named is SF-295. The experiment is described as above. The format is cell-based. The settings on record: CNS SF-295, 48 hrs. As for the experimental part: as §1, §6, §7, §2, §3, §4, §5
Another experiment relates to SK-MEL-5. The experiment is described as above. The experiment is classed as cell-based. The conditions noted are these: Melanoma SK-MEL-5, 48 hrs. Here is the method:
as §1, §6, §7, §2, §3, §4, §5

Another experiment deals with KM20L2. The description is as above. The experiment is classed as cell-based. The settings on record: Colon KM20L2, 48 hrs. Here is the method:
as §1, §6, §7, §2, §3, §4, §5

The test system of a further experiment is OVCAR-3. Described as above. The experiment is classed as cell-based. The conditions noted are these: Ovarian OVCAR-3, 48 hrs. Here is the method:
as §1, §6, §7, §2, §3, §4, §5

As for Dolastatin 10, the T/C in experiment [1] (6.25 μg/kg) is 69; in experiment [1] (13 μg/kg), 61; in experiment [1] (26 μg/kg) it was 50; in experiment [1] (52 μg/kg), 14.
In the case of “L-Dolavalyl-L-Leucyl-N-methyl-(3R,4S,5S)-Dolaisoleuinyl-(2R,3R,4S)-Dolaproinyl-L-Methionine N-4-chlorophenylamide [8b]”, the ED-50 in the experiment on PS-388 was found to be 0.000434 µg/mL. The GI-50 with NCI-H460 was found to be 0.003 µg/mL; in the experiment on A498, 0.00045 µg/mL; in the experiment with SF-295, 0.0029 µg/mL; in the experiment on SK-MEL-5 it was 0.000018 µg/mL; with KM20L2, 0.00028 µg/mL; in the experiment with OVCAR-3 it was 0.000031 µg/mL. The LC-50 in the experiment on NCI-H460, with A498, in the experiment on SF-295, in the experiment with SK-MEL-5, with KM20L2 and with OVCAR-3 was above 0.01 µg/mL throughout. For the same substance, the TGI is 0.009 mg/L in the experiment with NCI-H460; above 0.01 mg/L in the experiment on A498; above 0.01 mg/L in the experiment with SF-295; above 0.01 mg/L with SK-MEL-5; above 0.01 mg/L in the experiment on KM20L2; 0.0016 mg/L with OVCAR-3.
Turning to “L-Dolavalyl-L-Leucyl-N-methyl-(3R,4S,5S)-Dolaisoleuinyl-(2R,3R,4S)-Dolaproinyl-L-Methionine N-2-benzothiazolamide [8e]”, in the experiment on PS-388, the ED-50 worked out at 0.000839 µg/mL. Further, the GI-50 with NCI-H460 turned out to be 0.0032 µg/mL; in the experiment on A498, 0.00087 µg/mL; in the experiment on SF-295 it was 0.0036 µg/mL; in the experiment with SK-MEL-5, 0.000051 µg/mL; in the experiment with KM20L2, 0.00034 µg/mL; in the experiment with OVCAR-3, 0.00008 µg/mL. For the same substance, the LC-50 in the experiment on NCI-H460, with A498, with SF-295, in the experiment on SK-MEL-5, with KM20L2 and in the experiment on OVCAR-3 was above 0.01 µg/mL each time. Further, the TGI is above 0.01 mg/L in the experiment with NCI-H460; above 0.01 mg/L in the experiment on A498; above 0.01 mg/L with SF-295; above 0.01 mg/L with SK-MEL-5; above 0.01 mg/L with KM20L2; 0.0029 mg/L with OVCAR-3.
In turn, “L-Dolavalyl-L-Leucyl-N-methyl-(3R,4S,5S)-Dolaisoleuinyl-(2R,3R,4S)-Dolaproinyl-N-2(2-chlorophenyl) ethylamide [10b]” displayed an ED-50 in the experiment on PS-388 of 0.000357 µg/mL. The GI-50 in the experiment with NCI-H460 was 0.00033 µg/mL; in the experiment with A498, 0.00069 µg/mL; in the experiment with SF-295, 0.00042 µg/mL; with SK-MEL-5 it was 0.00043 µg/mL; in the experiment with KM20L2 it was 0.00031 µg/mL; with OVCAR-3 it was 0.00031 µg/mL. Also, the LC-50 in the experiment on NCI-H460, in the experiment with A498, with SF-295, in the experiment on SK-MEL-5, in the experiment on KM20L2 and in the experiment on OVCAR-3 was above 0.01 µg/mL throughout. In addition, the TGI was 0.0014 mg/L in the experiment with NCI-H460; above 0.01 mg/L with A498; above 0.01 mg/L in the experiment on SF-295; above 0.01 mg/L in the experiment with SK-MEL-5; 0.0013 mg/L with KM20L2; 0.0012 mg/L with OVCAR-3.
The substance “L-Dolavalyl-L-Leucyl-N-methyl-(3R,4S,5S)-Dolaisoleuinyl-(2R,3R,4S)-Dolaproinyl-N-2(4-chlorophenyl) ethylamide [10d]” registered an ED-50 in the experiment with PS-388 of 0.00586 µg/mL. For the same substance, the GI-50 in the experiment with NCI-H460 turned out to be 0.0024 µg/mL; with A498 it was 0.0059 µg/mL; in the experiment with SF-295, 0.0017 µg/mL; with SK-MEL-5, 0.00091 µg/mL; in the experiment with KM20L2, 0.00011 µg/mL; with OVCAR-3, 0.00029 µg/mL. The LC-50 in the experiment with NCI-H460, in the experiment on A498, with SF-295, in the experiment with SK-MEL-5, with KM20L2 and in the experiment on OVCAR-3 was above 1 µg/mL throughout. Further, the TGI in the experiment on NCI-H460 is 0.0097 mg/L; in the experiment on A498 it was 0.29 mg/L; with SF-295 it was 0.1 mg/L; in the experiment with SK-MEL-5 it was above 1 mg/L; with KM20L2 it was 0.011 mg/L; in the experiment on OVCAR-3 it was 0.012 mg/L.
